{"source": "patent US8350062B2", "about": "“Synthesis and anticancer activity of new actin-targeting small-molecule agents” (priority 2009, dated 2013)", "key": {"PC3 cells": {"test_system": "PC3 cells", "assay": "Growth of PC3 cells over 96 h", "type": "cell-based, human", "conditions": "same growth conditions", "protocol": "Cell Viability Assays. All assays were performed using at least three replicate wells for each concentration tested. Original 10-25 mM DMSO stock solution of bistramide A or its analogs was diluted to 100 μM for analogs 4-8, 10 μM for analog 3, 5 μM for analog 2 and 1 μM for bistramide A (1) with F-12K cell culture media supplemented with 10% fetal bovine serum, 100 I.U./ml penicillin, 100 μg/ml streptomycin and 2 mM L-glutamine. Two-fold serial dilutions were performed and used for cell-based assays. A549 cells were grown in 96-well white plates at the density of 1,000 cells per well in 100 μl F-12K cell culture media. Cells were allowed to attach over 24 h and treated with 30 μl of the drug solution and incubated further for 48 h. After incubation, cell viability was determined using luminescence-based commercial kit (CellTiter-Glo, Promega) and luminescence measured using a Wallac Victor 3 plate reader. To measure cell growth inhibition, viability assays were performed twice: at initial time point T0 and after 48 h incubation (T48). Change in the number of viable cells was measured, and GI50 was calculated from sigmoidal plots. For analog 10, growth of A549 and PC3 cells was monitored over 96 h following addition of the drug. 100 μM was the highest concentration tested. At no point did the total DMSO conc. exceed 1%."}, "A549 tumor xenografts": {"test_system": "A549 tumor xenografts", "assay": "A549 tumor xenograft growth in nude athymic mice", "type": "in vivo", "conditions": "20 mg/kg i.p. on 3rd, 5th and 7th day", "protocol": "Initially, we established that 10 had no observed toxicity in mice up to 50 mg/kg a single dose administered i.p. Toxicity was assessed by daily weight measurements and mouse behavior compared to non-injected mice. Next, we established tumor xenografts by injecting A549 cells subcutaneously into two groups of nude athymic mice (6 animals per group). The first group was injected only with DMSO control. The second group of animals received three i.p. doses of analog 10 (20 mg/kg) on the 3rd, 5th and 7th day after the initial tumor challenge. Tumor growth was monitored over a period of five weeks. The tumor grew rapidly in the control mice population and reached an average size of 731 mm^3 at the end of 4 weeks. […] The average tumor size for this population was 308 mm^3 after 4 weeks.\nA population of 22 nude athymic mice was injected subcutaneously with A549 cells (10^7 cells in 100 μl PBS each). A subpopulation of 12 mice was injected with analog 10 in 1% DMSO at 20 mg/kg on the 3rd, 5th and 7th day following treatment with A549 cells. A control population of 10 mice was injected with 1% DMSO. Tumor growth was measured over 5 weeks."}}}
{"smiles": "COCCC(=O)NC[C@H](O)[C@H](C)C(=O)NCCC[C@H]1O[C@@]2(CCC[C@@H](CC[C@H](C)/C=C(\\C)[C@H](C)O)O2)CCC1C", "note": "(stereo partly shown) [Analog 10]", "values": [{"measurement": "sensitivity of PC3 cells compared with A549 cells", "setting": "PC3 cells", "result": "substantially less sensitive"}, {"measurement": "drug-based cytotoxicity", "setting": "A549 tumor xenografts", "result": "no significant drug-based cytotoxicity was observed"}, {"measurement": "tumor growth", "setting": "A549 tumor xenografts", "result": "substantially inhibited"}, {"measurement": "average tumor size", "setting": "A549 tumor xenografts; after 4 weeks", "result": 308, "unit": "mm^3"}]}
